{
  "source": "paper PMC11864979",
  "about": "“First-in-class ultralong-target-residence-time p38α inhibitors as a mitosis-targeted therapy for colorectal cancer” (Nature Cancer, 2025)",
  "experiment_in_all_cases": "selectivity profiling in a panel of 340 wild-type kinases (Reaction Biology Europe)",
  "assay_type_in_all_cases": "binding",
  "key": {"340 wild-type kinases [1]": {"target": "T1, 340 wild-type kinases (Homo sapiens, UniProt O95819)", "T1 construct": "purchased Reaction Biology Europe"}, "340 wild-type kinases [2]": {"target": "T2, 340 wild-type kinases (Homo sapiens, UniProt P04049, Y340D/Y341D)", "T2 construct": "purchased Reaction Biology Europe", "conditions": "read-out: RAF1 YDYD residual activity"}, "340 wild-type kinases [3]": {"target": "T3, 340 wild-type kinases (Homo sapiens, UniProt P06241)", "T3 construct": "purchased Reaction Biology Europe", "T3 sequence (P06241 whole entry)": "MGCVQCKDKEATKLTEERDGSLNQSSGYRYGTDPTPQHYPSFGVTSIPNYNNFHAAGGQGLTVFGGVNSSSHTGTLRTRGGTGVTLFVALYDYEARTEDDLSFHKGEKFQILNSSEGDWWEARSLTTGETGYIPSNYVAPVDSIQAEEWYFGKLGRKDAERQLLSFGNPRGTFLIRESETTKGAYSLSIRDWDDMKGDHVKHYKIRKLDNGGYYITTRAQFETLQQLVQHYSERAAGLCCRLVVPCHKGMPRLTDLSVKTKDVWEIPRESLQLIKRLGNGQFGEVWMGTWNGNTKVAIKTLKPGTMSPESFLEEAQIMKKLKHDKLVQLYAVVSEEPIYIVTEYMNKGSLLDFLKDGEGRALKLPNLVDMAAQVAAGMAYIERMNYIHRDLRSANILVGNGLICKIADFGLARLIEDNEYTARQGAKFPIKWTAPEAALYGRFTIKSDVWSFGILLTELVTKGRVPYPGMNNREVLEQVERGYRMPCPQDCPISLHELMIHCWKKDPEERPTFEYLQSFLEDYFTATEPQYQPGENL"}, "340 wild-type kinases [4]": {"target": "T4, 340 wild-type kinases (Homo sapiens, UniProt P30291)", "T4 construct": "purchased Reaction Biology Europe", "T4 sequence (P30291 whole entry)": "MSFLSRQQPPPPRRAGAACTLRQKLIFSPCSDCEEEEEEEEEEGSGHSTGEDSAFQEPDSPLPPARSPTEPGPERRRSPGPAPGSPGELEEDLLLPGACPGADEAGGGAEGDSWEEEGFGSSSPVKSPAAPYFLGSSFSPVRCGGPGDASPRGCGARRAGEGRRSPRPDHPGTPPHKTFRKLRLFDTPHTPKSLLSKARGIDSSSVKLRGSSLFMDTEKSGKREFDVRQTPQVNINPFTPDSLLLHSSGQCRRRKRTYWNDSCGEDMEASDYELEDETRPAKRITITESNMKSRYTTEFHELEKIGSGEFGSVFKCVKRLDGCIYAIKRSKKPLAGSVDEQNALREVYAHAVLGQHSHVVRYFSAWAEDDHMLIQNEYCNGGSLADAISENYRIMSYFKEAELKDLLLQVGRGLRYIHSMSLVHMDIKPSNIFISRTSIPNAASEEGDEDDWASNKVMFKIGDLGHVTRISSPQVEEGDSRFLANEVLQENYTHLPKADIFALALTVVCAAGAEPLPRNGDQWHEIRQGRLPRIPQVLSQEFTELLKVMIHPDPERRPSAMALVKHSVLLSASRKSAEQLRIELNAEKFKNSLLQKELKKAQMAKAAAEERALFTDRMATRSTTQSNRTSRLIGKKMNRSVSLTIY"}, "340 wild-type kinases [5]": {"target": "T5, 340 wild-type kinases (Homo sapiens, UniProt P36896)", "T5 construct": "purchased Reaction Biology Europe", "T5 sequence (P36896 24-505)": "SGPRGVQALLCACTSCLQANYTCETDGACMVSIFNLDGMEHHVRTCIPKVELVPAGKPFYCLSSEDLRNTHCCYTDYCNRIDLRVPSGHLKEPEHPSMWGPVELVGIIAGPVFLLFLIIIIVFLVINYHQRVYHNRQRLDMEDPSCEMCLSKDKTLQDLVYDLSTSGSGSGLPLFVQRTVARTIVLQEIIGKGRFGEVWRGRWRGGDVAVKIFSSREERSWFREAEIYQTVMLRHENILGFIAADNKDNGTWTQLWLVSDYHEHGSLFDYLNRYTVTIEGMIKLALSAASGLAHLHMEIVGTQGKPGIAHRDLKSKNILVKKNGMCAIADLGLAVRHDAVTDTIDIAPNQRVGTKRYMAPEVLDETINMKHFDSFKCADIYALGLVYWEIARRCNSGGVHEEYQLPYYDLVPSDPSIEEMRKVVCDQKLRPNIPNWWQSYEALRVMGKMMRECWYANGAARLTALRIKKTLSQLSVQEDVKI"}, "340 wild-type kinases [6]": {"target": "T6, 340 wild-type kinases (Homo sapiens, UniProt P51817)", "T6 construct": "purchased Reaction Biology Europe", "T6 sequence (P51817 1-358)": "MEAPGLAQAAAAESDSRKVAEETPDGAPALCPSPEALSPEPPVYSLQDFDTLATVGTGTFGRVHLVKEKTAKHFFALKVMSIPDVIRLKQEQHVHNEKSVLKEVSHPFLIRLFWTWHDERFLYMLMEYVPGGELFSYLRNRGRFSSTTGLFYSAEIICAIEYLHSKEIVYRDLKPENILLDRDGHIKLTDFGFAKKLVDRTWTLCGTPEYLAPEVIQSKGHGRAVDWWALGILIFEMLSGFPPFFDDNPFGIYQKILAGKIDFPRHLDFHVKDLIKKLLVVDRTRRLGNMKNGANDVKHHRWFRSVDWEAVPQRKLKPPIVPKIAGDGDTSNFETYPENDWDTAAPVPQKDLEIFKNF"}, "340 wild-type kinases [7]": {"target": "T7, 340 wild-type kinases (Homo sapiens, UniProt P53779)", "T7 construct": "purchased Reaction Biology Europe", "T7 sequence (P53779 whole entry)": "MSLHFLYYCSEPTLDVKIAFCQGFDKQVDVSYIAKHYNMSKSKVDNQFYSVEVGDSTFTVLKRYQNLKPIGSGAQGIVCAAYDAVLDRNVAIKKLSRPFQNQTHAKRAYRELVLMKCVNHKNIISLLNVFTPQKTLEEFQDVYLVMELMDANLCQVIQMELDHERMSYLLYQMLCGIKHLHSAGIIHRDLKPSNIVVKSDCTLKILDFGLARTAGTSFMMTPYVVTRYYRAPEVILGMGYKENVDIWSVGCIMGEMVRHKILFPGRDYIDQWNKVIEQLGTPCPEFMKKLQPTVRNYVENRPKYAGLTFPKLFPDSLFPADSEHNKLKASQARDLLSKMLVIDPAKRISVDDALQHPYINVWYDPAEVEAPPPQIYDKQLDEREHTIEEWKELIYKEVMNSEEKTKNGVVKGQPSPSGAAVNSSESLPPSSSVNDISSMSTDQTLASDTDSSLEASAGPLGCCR"}, "340 wild-type kinases [8]": {"target": "T8, 340 wild-type kinases (Homo sapiens, UniProt Q86UE8)", "T8 construct": "purchased Reaction Biology Europe", "T8 sequence (Q86UE8 whole entry)": "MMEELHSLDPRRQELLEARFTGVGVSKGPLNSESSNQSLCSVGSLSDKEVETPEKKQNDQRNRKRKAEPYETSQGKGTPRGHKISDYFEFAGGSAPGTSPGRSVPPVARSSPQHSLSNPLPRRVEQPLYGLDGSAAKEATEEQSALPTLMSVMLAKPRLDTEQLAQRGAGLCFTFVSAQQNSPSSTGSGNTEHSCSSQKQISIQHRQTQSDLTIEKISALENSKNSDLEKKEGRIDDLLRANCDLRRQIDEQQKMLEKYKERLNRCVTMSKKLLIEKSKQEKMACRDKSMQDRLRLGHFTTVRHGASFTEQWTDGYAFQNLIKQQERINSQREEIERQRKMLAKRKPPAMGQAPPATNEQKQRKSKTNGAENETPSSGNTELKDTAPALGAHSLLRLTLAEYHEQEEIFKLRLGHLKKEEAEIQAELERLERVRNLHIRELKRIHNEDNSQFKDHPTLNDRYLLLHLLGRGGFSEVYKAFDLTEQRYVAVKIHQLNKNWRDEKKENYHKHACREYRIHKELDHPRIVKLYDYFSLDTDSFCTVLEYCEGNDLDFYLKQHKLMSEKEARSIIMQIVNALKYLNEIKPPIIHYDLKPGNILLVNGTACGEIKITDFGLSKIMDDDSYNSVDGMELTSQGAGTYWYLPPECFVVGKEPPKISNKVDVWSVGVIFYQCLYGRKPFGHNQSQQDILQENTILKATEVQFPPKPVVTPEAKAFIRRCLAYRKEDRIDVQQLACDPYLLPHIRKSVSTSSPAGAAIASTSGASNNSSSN"}, "340 wild-type kinases [9]": {"target": "T9, 340 wild-type kinases (Homo sapiens, UniProt Q92630)", "T9 construct": "purchased Reaction Biology Europe", "T9 sequence (Q92630 1-601)": "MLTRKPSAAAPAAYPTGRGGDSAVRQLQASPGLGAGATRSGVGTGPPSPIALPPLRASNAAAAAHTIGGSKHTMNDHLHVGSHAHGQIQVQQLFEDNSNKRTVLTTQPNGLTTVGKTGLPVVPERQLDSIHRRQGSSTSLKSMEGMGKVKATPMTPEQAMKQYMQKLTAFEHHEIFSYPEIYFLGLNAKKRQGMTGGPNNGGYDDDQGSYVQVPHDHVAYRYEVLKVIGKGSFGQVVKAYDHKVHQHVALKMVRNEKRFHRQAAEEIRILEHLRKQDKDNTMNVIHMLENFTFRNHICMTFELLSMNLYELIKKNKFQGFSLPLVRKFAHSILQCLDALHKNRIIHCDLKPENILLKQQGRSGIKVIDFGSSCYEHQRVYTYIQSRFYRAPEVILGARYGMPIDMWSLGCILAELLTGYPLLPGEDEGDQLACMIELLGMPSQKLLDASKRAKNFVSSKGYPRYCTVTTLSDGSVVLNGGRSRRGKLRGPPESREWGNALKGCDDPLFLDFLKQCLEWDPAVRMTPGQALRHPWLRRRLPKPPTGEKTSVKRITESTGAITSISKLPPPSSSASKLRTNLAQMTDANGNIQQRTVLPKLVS"}, "340 wild-type kinases [10]": {"target": "T10, 340 wild-type kinases (Homo sapiens, UniProt Q9H4A3)", "T10 construct": "purchased Reaction Biology Europe", "T10 sequence (Q9H4A3 whole entry)": "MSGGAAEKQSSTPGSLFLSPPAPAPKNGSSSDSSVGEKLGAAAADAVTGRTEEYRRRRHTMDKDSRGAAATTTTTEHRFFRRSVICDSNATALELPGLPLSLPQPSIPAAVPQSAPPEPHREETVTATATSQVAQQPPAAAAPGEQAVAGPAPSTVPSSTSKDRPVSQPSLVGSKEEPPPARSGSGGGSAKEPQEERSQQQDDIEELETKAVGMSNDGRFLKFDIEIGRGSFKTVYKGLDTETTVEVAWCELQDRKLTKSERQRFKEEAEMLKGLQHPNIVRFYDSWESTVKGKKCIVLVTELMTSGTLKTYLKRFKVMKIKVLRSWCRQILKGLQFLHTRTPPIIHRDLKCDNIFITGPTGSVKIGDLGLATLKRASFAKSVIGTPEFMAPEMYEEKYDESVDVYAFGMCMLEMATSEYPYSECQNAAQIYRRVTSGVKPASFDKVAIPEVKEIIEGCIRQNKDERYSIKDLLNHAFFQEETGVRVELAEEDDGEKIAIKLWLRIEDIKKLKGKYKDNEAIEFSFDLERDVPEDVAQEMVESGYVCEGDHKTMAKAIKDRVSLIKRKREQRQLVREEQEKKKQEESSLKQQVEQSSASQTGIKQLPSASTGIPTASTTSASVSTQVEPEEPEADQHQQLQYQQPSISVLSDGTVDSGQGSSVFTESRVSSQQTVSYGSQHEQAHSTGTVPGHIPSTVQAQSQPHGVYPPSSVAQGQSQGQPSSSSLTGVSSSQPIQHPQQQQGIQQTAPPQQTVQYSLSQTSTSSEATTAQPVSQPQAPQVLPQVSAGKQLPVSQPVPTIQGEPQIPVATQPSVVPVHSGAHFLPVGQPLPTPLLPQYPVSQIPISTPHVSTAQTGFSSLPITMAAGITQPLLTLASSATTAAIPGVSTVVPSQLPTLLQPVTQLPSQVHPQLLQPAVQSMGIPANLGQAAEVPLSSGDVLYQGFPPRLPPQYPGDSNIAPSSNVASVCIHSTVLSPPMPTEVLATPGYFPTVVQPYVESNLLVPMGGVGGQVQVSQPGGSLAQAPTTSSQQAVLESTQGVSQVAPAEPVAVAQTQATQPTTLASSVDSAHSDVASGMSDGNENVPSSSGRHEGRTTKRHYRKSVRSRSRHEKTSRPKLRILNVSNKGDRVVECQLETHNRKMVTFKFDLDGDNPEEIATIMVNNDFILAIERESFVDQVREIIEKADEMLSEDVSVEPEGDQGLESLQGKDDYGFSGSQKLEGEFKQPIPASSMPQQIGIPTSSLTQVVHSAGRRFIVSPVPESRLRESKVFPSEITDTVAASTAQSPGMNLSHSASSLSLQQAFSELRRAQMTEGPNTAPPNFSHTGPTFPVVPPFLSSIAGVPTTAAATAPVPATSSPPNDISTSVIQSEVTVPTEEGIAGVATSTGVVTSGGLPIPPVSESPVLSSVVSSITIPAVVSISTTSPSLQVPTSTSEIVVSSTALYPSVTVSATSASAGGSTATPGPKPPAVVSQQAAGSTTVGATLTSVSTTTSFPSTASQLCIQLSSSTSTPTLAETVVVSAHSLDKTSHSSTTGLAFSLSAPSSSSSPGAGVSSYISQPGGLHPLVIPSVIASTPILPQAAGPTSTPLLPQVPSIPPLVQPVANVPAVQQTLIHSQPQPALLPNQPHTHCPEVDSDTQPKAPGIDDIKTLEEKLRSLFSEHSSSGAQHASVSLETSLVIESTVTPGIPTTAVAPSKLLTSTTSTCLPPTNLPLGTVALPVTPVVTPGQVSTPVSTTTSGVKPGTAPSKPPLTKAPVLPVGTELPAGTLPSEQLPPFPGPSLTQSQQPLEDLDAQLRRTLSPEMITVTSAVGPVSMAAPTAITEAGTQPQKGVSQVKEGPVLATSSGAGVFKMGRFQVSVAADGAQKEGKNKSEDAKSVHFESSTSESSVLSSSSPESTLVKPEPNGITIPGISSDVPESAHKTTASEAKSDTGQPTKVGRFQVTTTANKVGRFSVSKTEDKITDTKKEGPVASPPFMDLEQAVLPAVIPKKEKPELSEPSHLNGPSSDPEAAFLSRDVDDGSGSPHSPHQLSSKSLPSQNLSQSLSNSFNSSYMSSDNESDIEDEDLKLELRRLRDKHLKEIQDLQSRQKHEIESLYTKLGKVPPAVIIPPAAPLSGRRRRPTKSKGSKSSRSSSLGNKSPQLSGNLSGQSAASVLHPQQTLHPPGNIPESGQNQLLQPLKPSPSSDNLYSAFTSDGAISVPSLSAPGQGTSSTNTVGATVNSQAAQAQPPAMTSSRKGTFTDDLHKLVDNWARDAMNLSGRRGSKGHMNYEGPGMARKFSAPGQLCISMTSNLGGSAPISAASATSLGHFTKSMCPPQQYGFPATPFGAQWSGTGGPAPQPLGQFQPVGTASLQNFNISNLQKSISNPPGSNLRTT"}},
  "note": "Like-named read-outs stand apart in the source and are kept apart here.",
  "data": [
    {"molecule": "CNC(=O)c1ccc2c(c1)C(=O)c1ccc(Nc3ccc(F)c(NC(=O)C4CC4)c3)cc1CC2", "note": "[Compound 2015]", "values": [
      {"measurement": "remaining activity at 0.2 µM", "setting": "340 wild-type kinases [1]; 0.2 µM 2015, read-out: MAP4K4 residual activity", "value": 90.2, "unit": "%"},
      {"measurement": "remaining activity at 1 µM", "setting": "340 wild-type kinases [1]; 1 µM 2015, read-out: MAP4K4 residual activity", "value": 81.8, "unit": "%"},
      {"measurement": "remaining activity at 0.2 µM", "setting": "340 wild-type kinases [1]; MAP4K4, 0.2 µM, read-out: residual activity", "value": 90.2, "unit": "%"},
      {"measurement": "remaining activity at 1 µM", "setting": "340 wild-type kinases [1]; MAP4K4, 1 µM, read-out: residual activity", "value": 81.8, "unit": "%"},
      {"measurement": "remaining activity at 0.2 µM", "setting": "340 wild-type kinases [2]; 0.2 µM 2015", "value": 80.3, "unit": "%"},
      {"measurement": "remaining activity at 1 µM", "setting": "340 wild-type kinases [2]; 1 µM 2015", "value": 88.8, "unit": "%"},
      {"measurement": "remaining activity at 0.2 µM", "setting": "340 wild-type kinases [3]; 0.2 µM 2015, read-out: FYN residual activity", "value": 119, "unit": "%"},
      {"measurement": "remaining activity at 1 µM", "setting": "340 wild-type kinases [3]; 1 µM 2015, read-out: FYN residual activity", "value": 101, "unit": "%"},
      {"measurement": "remaining activity at 0.2 µM", "setting": "340 wild-type kinases [3]; FYN, 0.2 µM, read-out: residual activity", "value": 119, "unit": "%"},
      {"measurement": "remaining activity at 1 µM", "setting": "340 wild-type kinases [3]; FYN, 1 µM, read-out: residual activity", "value": 101, "unit": "%"},
      {"measurement": "remaining activity at 0.2 µM", "setting": "340 wild-type kinases [4]; 0.2 µM 2015, read-out: WEE1 residual activity", "value": 91.7, "unit": "%"},
      {"measurement": "remaining activity at 1 µM", "setting": "340 wild-type kinases [4]; 1 µM 2015, read-out: WEE1 residual activity", "value": 83.3, "unit": "%"},
      {"measurement": "remaining activity at 0.2 µM", "setting": "340 wild-type kinases [4]; WEE1, 0.2 µM, read-out: residual activity", "value": 91.7, "unit": "%"},
      {"measurement": "remaining activity at 1 µM", "setting": "340 wild-type kinases [4]; WEE1, 1 µM, read-out: residual activity", "value": 83.3, "unit": "%"},
      {"measurement": "remaining activity at 0.2 µM", "setting": "340 wild-type kinases [5]; 0.2 µM 2015, read-out: ACVR1B residual activity", "value": 101, "unit": "%"},
      {"measurement": "remaining activity at 0.2 µM", "setting": "340 wild-type kinases [5]; ACVR1B, 0.2 µM, read-out: residual activity", "value": 101, "unit": "%"},
      {"measurement": "remaining activity at 1 µM", "setting": "340 wild-type kinases [5]; ACVR1B, 1 µM, read-out: residual activity", "value": 86.1, "unit": "%"},
      {"measurement": "remaining activity at 0.2 µM", "setting": "340 wild-type kinases [6]; 0.2 µM 2015, read-out: PRKX residual activity", "value": 107, "unit": "%"},
      {"measurement": "remaining activity at 1 µM", "setting": "340 wild-type kinases [6]; 1 µM 2015, read-out: PRKX residual activity", "value": 97.1, "unit": "%"},
      {"measurement": "remaining activity at 0.2 µM", "setting": "340 wild-type kinases [6]; PRKX, 0.2 µM, read-out: residual activity", "value": 107, "unit": "%"},
      {"measurement": "remaining activity at 1 µM", "setting": "340 wild-type kinases [6]; PRKX, 1 µM, read-out: residual activity", "value": 97, "unit": "%"},
      {"measurement": "remaining activity at 0.2 µM", "setting": "340 wild-type kinases [7]; 0.2 µM 2015, read-out: JNK3 residual activity", "value": 90.9, "unit": "%"},
      {"measurement": "remaining activity at 1 µM", "setting": "340 wild-type kinases [7]; 1 µM 2015, read-out: JNK3 residual activity", "value": 100, "unit": "%"},
      {"measurement": "remaining activity at 0.2 µM", "setting": "340 wild-type kinases [7]; JNK3, 0.2 µM, read-out: residual activity", "value": 90.9, "unit": "%"},
      {"measurement": "remaining activity at 1 µM", "setting": "340 wild-type kinases [7]; JNK3, 1 µM, read-out: residual activity", "value": 100, "unit": "%"},
      {"measurement": "remaining activity at 0.2 µM", "setting": "340 wild-type kinases [8]; 0.2 µM 2015, read-out: TLK2 residual activity", "value": 147, "unit": "%"},
      {"measurement": "remaining activity at 1 µM", "setting": "340 wild-type kinases [8]; 1 µM 2015, read-out: TLK2 residual activity", "value": 124, "unit": "%"},
      {"measurement": "remaining activity at 0.2 µM", "setting": "340 wild-type kinases [8]; TLK2, 0.2 µM, read-out: residual activity", "value": 147, "unit": "%"},
      {"measurement": "remaining activity at 1 µM", "setting": "340 wild-type kinases [8]; TLK2, 1 µM, read-out: residual activity", "value": 124, "unit": "%"},
      {"measurement": "remaining activity at 0.2 µM", "setting": "340 wild-type kinases [9]; 0.2 µM 2015, read-out: DYRK2 residual activity", "value": 95.7, "unit": "%"},
      {"measurement": "remaining activity at 1 µM", "setting": "340 wild-type kinases [9]; 1 µM 2015, read-out: DYRK2 residual activity", "value": 94.2, "unit": "%"},
      {"measurement": "remaining activity at 0.2 µM", "setting": "340 wild-type kinases [9]; DYRK2, 0.2 µM, read-out: residual activity", "value": 95.7, "unit": "%"},
      {"measurement": "remaining activity at 1 µM", "setting": "340 wild-type kinases [9]; DYRK2, 1 µM, read-out: residual activity", "value": 94.2, "unit": "%"},
      {"measurement": "remaining activity at 0.2 µM", "setting": "340 wild-type kinases [10]; 0.2 µM 2015, read-out: WNK1 residual activity", "value": 95, "unit": "%"},
      {"measurement": "remaining activity at 1 µM", "setting": "340 wild-type kinases [10]; 1 µM 2015, read-out: WNK1 residual activity", "value": 91.4, "unit": "%"},
      {"measurement": "remaining activity at 0.2 µM", "setting": "340 wild-type kinases [10]; WNK1, 0.2 µM, read-out: residual activity", "value": 95, "unit": "%"},
      {"measurement": "remaining activity at 1 µM", "setting": "340 wild-type kinases [10]; WNK1, 1 µM, read-out: residual activity", "value": 91.4, "unit": "%"}
    ]}
  ]
}
